ChEMBL document CHEMBL4265953, “Exploration of novel pyrrolo[2,1-f][1,2,4]triazine derivatives with improved anticancer efficacy as dual inhibitors of c-Met/VEGFR-2” (Eur J Med Chem, 2018)
In brackets after ≈: the same amount, converted by molar mass.

Legend:
[1] = Half life in Sprague-Dawley rat at 2 mg/kg, iv by LC-MS analysis; format: ADME, organism-based; conditions: in vivo
[2] = Half life in Sprague-Dawley rat at 10 mg/kg, po by LC-MS analysis; format: ADME, organism-based; conditions: in vivo
[3] = AUC in Sprague-Dawley rat at 2 mg/kg, iv by LC-MS analysis; format: ADME, organism-based; conditions: in vivo
[4] = AUC in Sprague-Dawley rat at 10 mg/kg, po by LC-MS analysis; format: ADME, organism-based; conditions: in vivo
[5] = Tmax in Sprague-Dawley rat at 10 mg/kg, po by LC-MS analysis; format: ADME, organism-based; conditions: in vivo
[6] = Cmax in Sprague-Dawley rat at 2 mg/kg, iv by LC-MS analysis; format: ADME, organism-based; parameters: dose 2 mg/kg, route intravenous; conditions: in vivo
[7] = Cmax in Sprague-Dawley rat at 10 mg/kg, po by LC-MS analysis; format: ADME, organism-based; parameters: dose 10 mg/kg, route oral; conditions: in vivo
[8] = Clearance in Sprague-Dawley rat at 2 mg/kg, iv by LC-MS analysis; format: ADME, organism-based; conditions: in vivo
[9] = Oral bioavailability in Sprague-Dawley rat at 10 mg/kg by LC-MS analysis; format: ADME, organism-based; conditions: in vivo
physchem [10] = experiment: physchem
physchem [11] = conditions: n-octanol/water
[12] = octanol/water, 0.5 h

half-life [1] [h] | half-life [2] [h] | AUC [3] [ng·h/mL] | AUC [4] [ng·h/mL] | Tmax [5] [h] | Cmax [6] [ng/mL] | Cmax [7] [ng/mL] | clearance [8] [mL/min/kg] | bioavailability [9] [%] | solubility at 1 h (physchem [10]) [µg/mL] | logP at 0.5 h (physchem [11]) | logP [12] | SMILES
2.16 | 5 | 239 | 1170 | 5 | 72.1 | 129 | 139 | 98.1 | 20.5 (≈ 32.2 µM) | 2.98 | – | Cc1c(OCC(O)CN2CCN(C)CC2)cn2ncnc(Oc3ccc(NC(=O)C4(C(=O)Nc5ccc(F)cc5)CC4)cc3F)c12 (stereo not given)
– | – | – | – | – | – | – | – | – | 52 | – | 1.89 | COc1cc2nccc(Oc3ccc(NC(=O)C4(C(=O)Nc5ccc(F)cc5)CC4)cc3)c2cc1OC.O=C(O)C[C@H](O)C(=O)O [CABOZANTINIB S-MALATE]
– | – | – | – | – | – | – | – | – | < 0.1 | 3.89 | – | COc1cc2nccc(Oc3ccc(NC(=O)C4(C(=O)Nc5ccc(F)cc5)CC4)cc3)c2cc1OC [CABOZANTINIB]
